Results published in patent US20240109865A1, “INDAZOLE COMPOUNDS AS KINASE INHIBITORS” (TYRA BIOSCIENCES, INC., priority 2020, published 2024).

Assays:
[1] = tested on: KG-1 cells (FGFR1-fusion); experiment: KG-1 cancer cell line cell viability assay (CellTiter-Glo 2.0); format: cell-based; details: Homo sapiens, 72 hours, Cell Titer Glo 2.0
Outline: (§1)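 RT112/84, UM-UC-14 and KG-1 cells (10,000/well, RPMI1640 with 10% FBS) were treated with a 9-dose, 10-fold series starting at 30 μM, in triplicate, for 72 h at 37 °C. ATP was read by CellTiter-Glo 2.0 luminescence relative to DMSO controls, and IC50 was fitted with a 4-parameter sigmoidal model.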

FGFR2 = FGFR2 (Homo sapiens (Human), UniProt P21802); experiment: Kinase assay, binding constants (Kd), kinase-tagged T7 phage, qPCR
Chain of FGFR2 (P21802 22-821): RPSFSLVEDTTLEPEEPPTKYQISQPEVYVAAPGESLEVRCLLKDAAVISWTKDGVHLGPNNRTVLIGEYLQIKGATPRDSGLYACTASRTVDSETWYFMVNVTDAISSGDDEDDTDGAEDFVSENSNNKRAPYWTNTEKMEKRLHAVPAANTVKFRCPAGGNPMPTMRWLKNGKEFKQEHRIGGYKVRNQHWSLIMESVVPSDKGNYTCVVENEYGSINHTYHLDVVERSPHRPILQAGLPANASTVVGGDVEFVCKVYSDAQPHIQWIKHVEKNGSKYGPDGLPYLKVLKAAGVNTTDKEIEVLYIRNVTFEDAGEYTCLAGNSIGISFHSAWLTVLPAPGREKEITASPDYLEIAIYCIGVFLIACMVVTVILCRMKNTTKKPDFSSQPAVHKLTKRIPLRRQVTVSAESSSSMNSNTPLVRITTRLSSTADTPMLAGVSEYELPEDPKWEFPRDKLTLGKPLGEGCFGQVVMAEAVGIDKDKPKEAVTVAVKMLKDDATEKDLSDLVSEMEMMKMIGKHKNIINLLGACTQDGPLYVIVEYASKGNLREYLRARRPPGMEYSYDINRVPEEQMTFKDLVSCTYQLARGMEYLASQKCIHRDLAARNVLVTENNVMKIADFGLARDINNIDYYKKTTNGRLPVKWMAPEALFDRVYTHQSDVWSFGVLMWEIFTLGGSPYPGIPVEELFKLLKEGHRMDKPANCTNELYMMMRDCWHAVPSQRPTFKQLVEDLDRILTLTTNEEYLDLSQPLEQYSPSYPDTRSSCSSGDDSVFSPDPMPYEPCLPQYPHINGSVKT
Outline: (§2)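 Competition binding: T7 phage-tagged kinase + biotin-ligand beads + compound (11 pts, 3-fold, 0.9% DMSO). Elution 30 min RT with free ligand; qPCR quantitation. Kd via Hill fit, slope −1.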

FGFR3 = FGFR3 (Homo sapiens (Human), UniProt P22607); experiment: as above
Chain of FGFR3 (P22607 23-806): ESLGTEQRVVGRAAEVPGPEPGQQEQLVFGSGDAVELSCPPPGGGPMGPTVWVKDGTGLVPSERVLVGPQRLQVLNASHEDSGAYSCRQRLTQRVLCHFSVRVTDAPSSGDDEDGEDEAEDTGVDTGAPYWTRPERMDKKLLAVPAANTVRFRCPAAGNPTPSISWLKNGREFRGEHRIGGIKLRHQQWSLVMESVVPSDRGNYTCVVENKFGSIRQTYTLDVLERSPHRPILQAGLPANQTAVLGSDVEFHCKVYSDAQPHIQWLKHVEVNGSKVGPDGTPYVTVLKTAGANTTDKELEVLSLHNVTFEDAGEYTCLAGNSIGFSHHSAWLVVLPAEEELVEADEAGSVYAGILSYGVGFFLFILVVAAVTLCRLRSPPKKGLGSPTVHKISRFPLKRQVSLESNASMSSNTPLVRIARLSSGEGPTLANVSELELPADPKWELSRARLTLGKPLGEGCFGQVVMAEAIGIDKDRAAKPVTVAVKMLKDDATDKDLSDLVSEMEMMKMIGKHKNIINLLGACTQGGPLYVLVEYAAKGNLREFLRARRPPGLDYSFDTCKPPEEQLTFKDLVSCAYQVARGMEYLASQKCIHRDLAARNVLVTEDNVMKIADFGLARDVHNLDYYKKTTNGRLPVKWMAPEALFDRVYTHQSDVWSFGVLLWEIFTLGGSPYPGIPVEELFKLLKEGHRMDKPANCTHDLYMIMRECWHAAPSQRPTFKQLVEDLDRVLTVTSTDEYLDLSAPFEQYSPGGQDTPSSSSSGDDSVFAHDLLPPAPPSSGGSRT
Outline: as §2

FGFR4 = FGFR4 (Homo sapiens (Human), UniProt P22455); experiment: as above
Chain of FGFR4 (P22455 22-802): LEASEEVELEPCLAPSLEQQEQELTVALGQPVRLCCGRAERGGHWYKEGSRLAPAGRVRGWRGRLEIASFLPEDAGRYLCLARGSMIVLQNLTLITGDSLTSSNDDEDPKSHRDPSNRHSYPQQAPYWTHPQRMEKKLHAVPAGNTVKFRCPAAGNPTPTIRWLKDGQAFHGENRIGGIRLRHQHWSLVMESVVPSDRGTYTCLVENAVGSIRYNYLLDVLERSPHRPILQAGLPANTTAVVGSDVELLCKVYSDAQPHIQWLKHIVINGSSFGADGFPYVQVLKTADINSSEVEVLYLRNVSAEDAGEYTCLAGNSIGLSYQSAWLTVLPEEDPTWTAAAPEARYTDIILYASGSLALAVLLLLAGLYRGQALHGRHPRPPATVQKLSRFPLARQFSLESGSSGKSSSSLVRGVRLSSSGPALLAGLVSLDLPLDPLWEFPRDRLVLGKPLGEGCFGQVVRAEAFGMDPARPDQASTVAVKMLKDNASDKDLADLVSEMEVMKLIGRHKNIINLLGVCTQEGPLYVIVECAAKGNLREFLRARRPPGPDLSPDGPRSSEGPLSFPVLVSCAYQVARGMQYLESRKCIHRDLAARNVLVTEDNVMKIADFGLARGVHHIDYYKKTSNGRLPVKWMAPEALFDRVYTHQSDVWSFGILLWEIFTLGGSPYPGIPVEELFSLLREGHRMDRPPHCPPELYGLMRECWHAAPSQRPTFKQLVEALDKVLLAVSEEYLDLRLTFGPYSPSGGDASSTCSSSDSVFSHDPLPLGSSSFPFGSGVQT
Outline: as §2

FGFR1 = FGFR1 (Homo sapiens (Human), UniProt P11362); experiment: as above
Chain of FGFR1 (P11362 22-822): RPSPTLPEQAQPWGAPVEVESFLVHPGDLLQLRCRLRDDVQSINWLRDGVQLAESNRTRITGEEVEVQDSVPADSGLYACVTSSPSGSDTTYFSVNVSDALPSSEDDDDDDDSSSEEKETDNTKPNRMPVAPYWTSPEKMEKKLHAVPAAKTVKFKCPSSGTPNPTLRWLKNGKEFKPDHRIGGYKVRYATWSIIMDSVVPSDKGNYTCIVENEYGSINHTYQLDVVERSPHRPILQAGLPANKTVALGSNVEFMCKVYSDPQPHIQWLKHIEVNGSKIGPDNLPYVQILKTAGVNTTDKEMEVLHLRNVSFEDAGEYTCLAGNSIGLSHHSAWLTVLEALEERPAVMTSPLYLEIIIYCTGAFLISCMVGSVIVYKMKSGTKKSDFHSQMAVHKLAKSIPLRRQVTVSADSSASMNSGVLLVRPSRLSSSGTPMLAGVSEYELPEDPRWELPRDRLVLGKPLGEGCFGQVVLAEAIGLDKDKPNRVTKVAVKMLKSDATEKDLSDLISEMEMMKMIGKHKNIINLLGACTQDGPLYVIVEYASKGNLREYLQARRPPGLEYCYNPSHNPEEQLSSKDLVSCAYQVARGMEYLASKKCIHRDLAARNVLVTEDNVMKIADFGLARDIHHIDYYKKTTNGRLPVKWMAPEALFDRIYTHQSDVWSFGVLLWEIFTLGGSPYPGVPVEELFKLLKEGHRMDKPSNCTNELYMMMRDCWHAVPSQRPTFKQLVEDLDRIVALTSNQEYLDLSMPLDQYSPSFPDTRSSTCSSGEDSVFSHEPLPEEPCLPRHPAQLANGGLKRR
Outline: as §2

FGFR3 (V555M) = FGFR3 (V555M) (Homo sapiens (Human), UniProt P22607, V555M); experiment: as above; details: V555M mutant
Chain of FGFR3 (V555M) (P22607 23-806 V555M): as the sequence (P22607 23-806) above, with V533M counted along it
Outline: as §2

[2] = tested on: UM-UC-14 cells (FGFR3(S249C)); experiment: UM-UC-14 cancer cell line cell viability assay (CellTiter-Glo 2.0); format: cell-based; details: UMUC14, 72 hours, Cell Titer Glo 2.0
Outline: as §1

FGFR1-BCR Ba/F3 cells = FGFR1-BCR Ba/F3 cells (Homo sapiens, UniProt P11362); experiment: Ba/F3 cell viability assay (CellTiter-Glo 2.0), FGFR1-BCR Ba/F3; format: cell-based; details: read-out: Ba/F3 Cells FGFR1 (IC50 nM), 48 hours, Cell Titer Glo 2.0
Chain of FGFR1-BCR Ba/F3 cells (P11362 22-822 limits assumed, change not shown): as the sequence (P11362 22-822) above
Outline: (§3)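 IL3-independent Ba/F3 lines driven by FGFR1-BCR or FGFR3-BAIAP2L1 fusions, in RPMI1640/10% FBS. 9-dose 10-fold series from 30 μM, triplicate, 48 h at 37 °C; viability by CellTiter-Glo 2.0 ATP luminescence relative to DMSO control, IC50 from 4-parameter sigmoidal fit.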

[3] = tested on: RT112/84 cells (FGFR3-fusion); experiment: RT112/84 cancer cell line cell viability assay (CellTiter-Glo 2.0); format: cell-based; details: Homo sapiens, 72 hours, Cell Titer Glo 2.0
Outline: as §1

[4] = biological target: FGFR3-BAIAP2L1 Ba/F3 cells (Homo sapiens, UniProt P22607); experiment: Ba/F3 cell viability assay (CellTiter-Glo 2.0), FGFR3-BAIAP2L1 Ba/F3; format: cell-based; details: for Ba/F3 FGFR1/FGFR3 Selectivity: FGFR3 > FGFR1 selectivity ratio in Ba/F3 FGFR fusion cell based assays; for IC50: read-out: Ba/F3 Cells FGFR3 (IC50 nM), FGFR3-BAIAP2L1 Ba/F3 cells, 48 hours, Cell Titer Glo 2.0
Chain of FGFR3-BAIAP2L1 Ba/F3 cells (P22607 23-806 limits assumed, change not shown): as the sequence (P22607 23-806) above
Outline: as §3

Structure (SMILES)	IC50 [1]	Kd (FGFR2)	Kd (FGFR3)	Kd (FGFR4)	Kd (FGFR1)	Kd (FGFR3 (V555M))	IC50 [2]	IC50 (FGFR1-BCR Ba/F3 cells)	IC50 [3]	Ba/F3 FGFR1/FGFR3 Selectivity [4]	IC50 [4]
C[C@@H](Oc1ccc2[nH]nc(-c3ccc(N4CCC5(CCCN5C)CC4)nc3)c2c1)c1c(Cl)cncc1Cl [Example 33, 8-[5-[5-[(1R)-1-(3,5-dichloro-4-pyridyl)ethoxy]-1H-indazol-3-yl]-2-pyridyl]-1-methyl-1,8-diazaspiro[4.5]decane]	20 to 100 nM	1 to 20 nM	1 to 20 nM	1 to 20 nM	1 to 20 nM	1 to 20 nM	1 to 20 nM	20 to 100 nM	1 to 20 nM	16	1 to 20 nM
C[C@@H](Oc1ccc2[nH]nc(-c3ccc(N4CCC5(CC4)C(=O)NCCN5C)nc3)c2c1)c1c(Cl)cncc1Cl [Example 34, 9-[5-[5-[(1R)-1-(3,5-dichloro-4-pyridyl)ethoxy]-1H-indazol-3-yl]-2-pyridyl]-1-methyl-1,4,9-triazaspiro[5.5]undecan-5-one]	20 to 100 nM	1 to 20 nM	1 to 20 nM	1 to 20 nM	1 to 20 nM	1 to 20 nM	1 to 20 nM	20 to 100 nM	1 to 20 nM	28	1 to 20 nM
C[C@@H](Oc1ccc2[nH]nc(-c3ccc(N4CC5(C4)CN(S(C)(=O)=O)C5)nc3)c2c1)c1c(Cl)cncc1Cl [Example 46, 5-[(1R)-1-(3,5-dichloro-4-pyridyl)ethoxy]-3-[6-(2-methylsulfonyl-2,6-diazaspiro[3.3]heptan-6-yl)-3-pyridyl]-1H-indazole]	20 to 100 nM	1 to 20 nM	1 to 20 nM	1 to 20 nM	1 to 20 nM	1 to 20 nM	1 to 20 nM	20 to 100 nM	1 to 20 nM	14	1 to 20 nM
C[C@@H](Oc1ccc2[nH]nc(-c3ccc(N4CC5(CN(C(=O)N(C)C)C5)C4)nc3)c2c1)c1c(Cl)cncc1Cl [Example 47, 6-[5-[5-[(1R)-1-(3,5-dichloro-4-pyridyl)ethoxy]-1H-indazol-3-yl]-2-pyridyl]-N,N-dimethyl-2,6-diazaspiro[3.3]heptane-2-carboxamide]	100 to 300 nM	1 to 20 nM	1 to 20 nM	1 to 20 nM	1 to 20 nM	1 to 20 nM	1 to 20 nM	100 to 300 nM	1 to 20 nM	21	1 to 20 nM
C[C@@H](Oc1ccc2[nH]nc(-c3cnc(N4CCC5(CCC(=O)N5)CC4)nc3)c2c1)c1c(Cl)cncc1Cl [Example 48, 8-[5-[5-[(1R)-1-(3,5-dichloro-4-pyridyl)ethoxy]-1H-indazol-3-yl]pyrimidin-2-yl]-1,8-diazaspiro[4.5]decan-2-one]	100 to 300 nM	20 to 100 nM	1 to 20 nM	1 to 20 nM	20 to 100 nM	1 to 20 nM	20 to 100 nM	100 to 300 nM	20 to 100 nM	8	20 to 100 nM
C[C@@H](Oc1ccc2[nH]nc(-c3cnc(N4CCC5(CC4)CNC(=O)C5)nc3)c2c1)c1c(Cl)cncc1Cl [Example 49, 8-[5-[5-[(1R)-1-(3,5-dichloro-4-pyridyl)ethoxy]-1H-indazol-3-yl]pyrimidin-2-yl]-2,8-diazaspiro[4.5]decan-3-one]	100 to 300 nM	20 to 100 nM	1 to 20 nM	1 to 20 nM	20 to 100 nM	1 to 20 nM	20 to 100 nM	100 to 300 nM	20 to 100 nM	10	1 to 20 nM
